Some test systems named below: OVCAR-8; OVCAR-5; UACC-62; SK-MEL-28; M14; LOX IMVI; SK-MEL-2; DU-145; NCI-H460; HT-29; SW-620; A549; SK-MEL-5; SF-295; SF-539; NCI-H23; RPMI-8226; A498.
Assay in all cases: NCI tumour cell line growth inhibition, 48 h

The results in this text go back to ChEMBL document CHEMBL1201862, “PubChem BioAssay data set” (2004).

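Grown in 96-well plates, cells were treated for 48 hours with each compound at five concentrations. Insufficient inhibition: endpoint recorded as highest concentration tested. GI50: concentration for 50% inhibition of growth.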 The source made the active and inactive calls. Cut-off read from the data, not from the text of the source: active = GI50 up to about 1.1 µM and inactive = higher. Where a SMILES comes first, the peptide text is derived from it. [ ]: non-standard residue; d: D form. The star is where a group is joined. ξ: configuration not given here. NMeF = CN[C@@H](Cc1ccccc1)C(=O)O; NMeV = CN[C@H](C(=O)O)C(C)C; ξNMeN = CNC(CC(N)=O)C(=O)O; NMeA = CN[C@@H](C)C(=O)O; ξNMeV = CNC(C(=O)O)C(C)C; Boc = CC(C)(C)OC(=O)*

As for `CN(C(=O)c1ccc2c(c1)sc1c(=O)n(C)c3ccccc3c12)c1ccccc1`, the GI50 with OVCAR-8, in the test with OVCAR-5, in the test on UACC-62, with SK-MEL-28, with M14 and with LOX IMVI was > 100 µM (inactive) throughout. For the same molecule, the GI50 with SK-MEL-2, with DU-145, with NCI-H460, in the test on HT-29, with SW-620 and in the test with A549 was > 100 µM (inactive) each time. Besides, the GI50 in the test on SK-MEL-5, in the test with SF-295, in the test with SF-539 and with NCI-H23 was > 100 µM (inactive) throughout.

`CC(=O)O[C@H]1CC[C@@]2(C)C(=C/C(=N\[N+](=O)[O-])[C@H]3C4CCC([C@H](C)CCCC(C)C)[C@@]4(C)CCC32)C1` (some centres undefined): the GI50 in the test with OVCAR-8, in the test with OVCAR-5, in the test with UACC-62, in the test on SK-MEL-28, in the test with M14 and in the test on RPMI-8226 was > 100 µM (inactive) throughout. Moreover, the GI50 in the test with LOX IMVI, in the test with SK-MEL-2, in the test with NCI-H460, with HT-29, in the test on SW-620 and with A549 was > 100 µM (inactive) each time. In addition, the GI50 with SK-MEL-5, with A498, in the test with SF-295, with SF-539 and with NCI-H23 was > 100 µM (inactive) each time.

Regarding `C=C[C@@]1(C)CC(=O)[C@]2(O)[C@@]3(C)[C@@H](OC(C)=O)CCC(C)(C)[C@@H]3[C@H](OC(C)=O)[C@H](OC(C)=O)[C@@]2(C)O1`, the GI50 in the test with OVCAR-8, with OVCAR-5, with UACC-62, in the test on SK-MEL-28, in the test on M14 and with LOX IMVI was > 100 µM (inactive) throughout. The GI50 in the test with SK-MEL-2, with DU-145, with NCI-H460, with HT-29, with SW-620 and in the test on A549 was > 100 µM (inactive) throughout. Further, the GI50 in the test on A498, with SF-295, in the test on SF-539 and in the test on NCI-H23 was > 100 µM (inactive) throughout.

In the case of `CCCCc1c2c(nc3c1CCC/C3=C\c1ccccc1)/C(=C/c1ccccc1)CCC2`, the GI50 in the test on OVCAR-8, in the test with UACC-62, with SK-MEL-28, in the test with M14, with RPMI-8226 and with LOX IMVI was > 100 µM (inactive) throughout. In addition, the GI50 in the test on NCI-H460, in the test on HT-29, in the test with SW-620, in the test with A549, in the test on SK-MEL-5 and in the test with SF-295 was > 100 µM (inactive) in each case. The GI50 in the test on SF-539 and with NCI-H23 was > 100 µM (inactive) in each case.

As for `COCCN(CCOC)C(=O)COc1c2cc(C(C)(C)C)cc1Cc1cc(C(C)(C)C)cc(c1OCC(=O)N(CCOC)CCOC)Cc1cc(C(C)(C)C)cc(c1OCC(=O)N(CCOC)CCOC)Cc1cc(C(C)(C)C)cc(c1OCC(=O)N(CCOC)CCOC)Cc1cc(C(C)(C)C)cc(c1OCC(=O)N(CCOC)CCOC)C2`, the GI50 in the test with OVCAR-8 was 1.39 µM (inactive); in the test on OVCAR-5, 5.55 µM (inactive); with UACC-62 it was 1.18 µM (inactive); with SK-MEL-28, 3.33 µM (inactive); in the test with M14 it was 1.89 µM (inactive); in the test on LOX IMVI, 1.73 µM (inactive). Besides, the GI50 with SK-MEL-2 was 1.02 µM (active); in the test with DU-145, 2.81 µM (inactive); in the test on NCI-H460, 1.12 µM (inactive); with HT-29, 0.908 µM (active); in the test on SW-620, 0.877 µM (active); with A549 it was 0.802 µM (active). Also, the GI50 in the test with SK-MEL-5 was 1.32 µM (inactive); in the test on A498, 3.17 µM (inactive); in the test on SF-295, 1.54 µM (inactive); in the test with SF-539, 2.34 µM (inactive); with NCI-H23, 1.19 µM (inactive).

On to `C#CCN(C(=O)C(F)(F)F)c1ccc(C(=O)c2ccc(N(CC#C)C(=O)C(F)(F)F)cc2)cc1`, for which the GI50 in the test with OVCAR-8 was 36.1 µM (inactive); in the test on OVCAR-5, 49.9 µM (inactive); in the test on UACC-62, 21.6 µM (inactive); in the test with SK-MEL-28, 35.3 µM (inactive); with M14 it was 33.2 µM (inactive); with RPMI-8226 it was 15.6 µM (inactive). Besides, the GI50 in the test on SK-MEL-2 is 33.7 µM (inactive); in the test on NCI-H460, 33.8 µM (inactive); with HT-29 it was 19.5 µM (inactive); with SW-620 it was > 100 µM (inactive); with A549 it was 84.9 µM (inactive); in the test on SK-MEL-5 it was > 100 µM (inactive). The GI50 was 37.8 µM (inactive) in the test with SF-295, 37.8 µM (inactive) in the test with SF-539 and 23.2 µM (inactive) in the test with NCI-H23.

In the case of `COc1ccc2cc(C(C)C(O)c3cc(F)c(F)c(F)c3F)ccc2c1` (centres undefined), the GI50 in the test with OVCAR-8 was 65.3 µM (inactive); in the test on OVCAR-5, > 100 µM (inactive); with UACC-62 it was > 100 µM (inactive); with SK-MEL-28, > 100 µM (inactive); in the test with M14, > 100 µM (inactive); in the test with RPMI-8226 it was > 100 µM (inactive). For the same molecule, the GI50 in the test on LOX IMVI, with DU-145, in the test on NCI-H460, with HT-29, in the test with SW-620 and in the test with A549 was > 100 µM (inactive) each time. The GI50 in the test on SK-MEL-5 was > 100 µM (inactive); with A498, > 100 µM (inactive); with SF-295, 40.4 µM (inactive); with NCI-H23, 49.8 µM (inactive).

Take `CC(=O)NC(CC(C)C)C(=O)NC(Cc1ccccc1)C(=S)N1CCCC1` (centres undefined): the GI50 in the test on OVCAR-8, in the test on OVCAR-5, in the test on UACC-62, in the test with SK-MEL-28, in the test with M14 and in the test on RPMI-8226 was > 100 µM (inactive) throughout. Further, the GI50 with LOX IMVI, in the test with SK-MEL-2, in the test on NCI-H460, in the test with HT-29, in the test on SW-620 and with A549 was > 100 µM (inactive) throughout. In addition, the GI50 with SK-MEL-5, in the test on A498, in the test on SF-295 and in the test on NCI-H23 was > 100 µM (inactive) throughout.

Take `COc1ccccc1/N=N/C(C(=O)c1ccccc1)C(=O)c1ccccc1`: the GI50 in the test on OVCAR-8 was 21.5 µM (inactive); in the test with OVCAR-5, 32.1 µM (inactive); in the test on UACC-62 it was 13.2 µM (inactive); with SK-MEL-28, 26.9 µM (inactive); in the test with M14 it was 15 µM (inactive); with RPMI-8226 it was 12.4 µM (inactive). The GI50 was 17.9 µM (inactive) in the test on LOX IMVI; 20.7 µM (inactive) in the test on SK-MEL-2; 19.6 µM (inactive) with NCI-H460; 25.9 µM (inactive) with HT-29; 25.1 µM (inactive) in the test with SW-620; 22.4 µM (inactive) in the test on A549. The GI50 in the test on SK-MEL-5 is 18 µM (inactive); in the test with A498, 25.2 µM (inactive); with SF-295, 17.8 µM (inactive); in the test on SF-539 it was 26.2 µM (inactive); in the test on NCI-H23, 19.2 µM (inactive).

For `COC(=O)[C@H](C)N(C)C(=O)C(CC(N)=O)N(C)C(=O)[C@H](Cc1ccccc1)N(C)C(=O)[C@@H]1CCCN1C(=O)[C@H](C(C)C)N(C)C(=O)C(C(C)C)N(C)C(=O)[C@@H](NC(=O)OC(C)(C)C)C(C)C` (some centres undefined) (Boc-V[ξNMeV][NMeV]P[NMeF][ξNMeN][NMeA]-OMe), the GI50 in the test on OVCAR-8 was 48.6 µM (inactive); with OVCAR-5 it was > 50 µM (inactive); in the test with UACC-62, > 50 µM (inactive); in the test on SK-MEL-28, > 50 µM (inactive); with M14, > 50 µM (inactive); in the test with RPMI-8226, > 5 µM (inactive). In addition, the GI50 in the test on LOX IMVI, in the test with SK-MEL-2, in the test with DU-145, in the test with NCI-H460, in the test with HT-29 and in the test on SW-620 was > 50 µM (inactive) in each case. The GI50 in the test on A549, in the test with SK-MEL-5, in the test on A498, in the test on SF-295, in the test with SF-539 and with NCI-H23 was > 50 µM (inactive) throughout.

In the case of `[N-]=[N+]=Nc1ccc(CCN2CCN(c3cccc(C(F)(F)F)c3)CC2)cc1I`, the GI50 with OVCAR-8 was > 100 µM (inactive); in the test with OVCAR-5, 34 µM (inactive); in the test with UACC-62 it was > 100 µM (inactive); with SK-MEL-28, > 100 µM (inactive); in the test on M14 it was > 100 µM (inactive); with RPMI-8226 it was 13 µM (inactive). In addition, the GI50 was > 100 µM (inactive) in the test with LOX IMVI; 38.4 µM (inactive) in the test on SK-MEL-2; 62.4 µM (inactive) in the test on NCI-H460; 29.4 µM (inactive) in the test with HT-29; 70.3 µM (inactive) with SW-620; 95.7 µM (inactive) in the test with A549. Also, the GI50 was 65.8 µM (inactive) in the test with SK-MEL-5; > 100 µM (inactive) in the test on A498; > 100 µM (inactive) in the test on SF-295; > 100 µM (inactive) in the test on SF-539; 46.6 µM (inactive) in the test on NCI-H23.
